From patent US8980933B2, “Combretastatin analogs for use in the treatment of cancer” (Universitat Bayreuth, priority 2010, dated 2015) come the findings set out here.

Holding throughout (assay type): cell-based, human
Experiment [1] concerns HL-60 cells. Briefly: Mitochondrial membrane assay (JC-1), HL-60. The conditions noted are these: 5 μM, red/green fluorescence ratio relative to untreated controls (100%), mean ± SD. As to the method:
(§1) Values represent means of four independent experiments±standard deviation.
(§2) Changes in mitochondrial membrane potential were determined by the Mitochondrial Membrane Detection Kit (Stratagene, La Jolla, Calif., USA) according to the manufacturer's procedure. 72 h following treatment with 5 μM of the test compounds, cell samples were centrifuged at 400 g for 5 min. The pellets were resuspended in 500 μL diluted JC-1 solution, incubated at 37° C. for 15 min (HL-60) and then centrifuged again for 5 min at 400 g. After washing, the pellets were resuspended in 100 μL PBS and transferred into the wells of a black 96-well plate. The red (λex=585 nm, λem=590 nm) and green (λex=510 nm, λem=527 nm) fluorescence intensities were measured and their ratio was calculated.

For experiment [2], the system named is 518A2 cells. Put plainly: ROS generation, NBT assay, 518A2. The conditions noted are these: 50 μM, relative to untreated controls (1%), mean ± SD. As to the method: (§3) The generation of reactive oxygen species (ROS) in tumor cells is a sign of cellular stress resulting in severe damage of cellular components such as DNA, lipids or proteins.
(§4) For the NBT assay, HL-60 cells (0.5·10^6/mL) were plated in 96-well tissue culture plates, and test compounds were added after 24 h incubation at 37° C. to achieve a final concentration of 50 μM. […] After removal of the cell medium by centrifugation, the cells in each well were resuspended in 100 μL 0.1% NBT, and the plates were placed in the incubator for 1 h. The reduced NBT was solubilized with 100 μl 2 M KOH and 130 μl DMSO for 30 min. The absorbance was measured for each well at 630 and 405 nm (background) using an ELISA plate reader. The adherent 518A2 cells (0.5·10^4/mL) were seeded out in 96-well tissue culture plates after trypsinization and incubation for 24 h at 37° C. to allow attachment, then treated similarly, only that the medium was removed prior to incubation with NBT for 4 h. All experiments were carried out in quadruplicate.

Experiment [3] relates to HL-60 cells. Put plainly: ROS generation, NBT assay, HL-60. Conditions: 50 μM, relative to untreated controls (1%), mean ± SD. As to the method: as §3, §4
The subject of experiment [4] is 518A2 cells. Briefly: Mitochondrial membrane assay (JC-1), 518A2. Conditions: 5 μM, red/green fluorescence ratio relative to untreated controls (100%), mean ± SD. As for the experimental part:
as §1, §2

Regarding `COc1cc(-c2ncoc2-c2ccc(N(C)C)cc2)cc(N)c1OC` [8b, 4-(3′-Amino-4′,5′-dimethoxyphenyl)-5-(4″-N,N-dimethylaminophenyl)-oxazole], in the experiment on HL-60 cells [1], the “Intact mitochondria [%] in HL-60 cells after 72 h” value was 62 ± 12%. Further, in the experiment on 518A2 cells [2], the “NBT Reduction [%] in 518A2 cells after 24 h” value is 1.4 ± 0.3%. For the same compound, the “NBT Reduction [%] in HL-60 cells after 24 h” value in the experiment with HL-60 cells [3] came out at 3.3 ± 0.2%. For the same compound, in the experiment on 518A2 cells [4], the “Intact mitochondria [%] in 518A2 cells after 72 h” value was 82 ± 8%.

Take `COc1ccc(-c2c(-c3cc(N)c(OC)c(OC)c3)ncn2C)cc1O` [8c, 1-Methyl-4-(3′-amino-4′,5′-dimethoxyphenyl)-5-(3″-hydroxy-4-methoxyphenyl)-imidazole]: the “Intact mitochondria [%] in HL-60 cells after 72 h” value with HL-60 cells [1] amounted to 76 ± 19%. Besides, the “NBT Reduction [%] in 518A2 cells after 24 h” value with 518A2 cells [2] is 1.1 ± 0.0%. Moreover, the “NBT Reduction [%] in HL-60 cells after 24 h” value in the experiment on HL-60 cells [3] is 1.8 ± 0.3%. Also, the “Intact mitochondria [%] in 518A2 cells after 72 h” value in the experiment with 518A2 cells [4] was 94 ± 7%.

As for `COc1ccc(-c2c(-c3cc(N)c(OC)c(OC)c3)ncn2C)cc1F` [8d, 1-Methyl-4-(3′-amino-4′,5′-dimethoxyphenyl)-5-(3″-fluoro-4-methoxyphenyl)-imidazole], the “Intact mitochondria [%] in HL-60 cells after 72 h” value with HL-60 cells [1] is given as 90 ± 22%. Further, the “NBT Reduction [%] in 518A2 cells after 24 h” value with 518A2 cells [2] stood at 1.2 ± 0.1%. The “NBT Reduction [%] in HL-60 cells after 24 h” value in the experiment with HL-60 cells [3] is recorded as 1.4 ± 0.2%. Moreover, the “Intact mitochondria [%] in 518A2 cells after 72 h” value with 518A2 cells [4] stood at 98 ± 15%.

With `COc1ccc(-c2c(-c3cc(Cl)c(OC)c(OC)c3)ncn2C)cc1F` [compound 5c, 1-Methyl-4-(3′-chloro-4′,5′-dimethoxyphenyl)-5-(3″-fluoro-4-methoxyphenyl)-imidazole], the “Intact mitochondria [%] in HL-60 cells after 72 h” value in the experiment on HL-60 cells [1] is recorded as 55 ± 7%. Also, in the experiment on 518A2 cells [2], the “NBT Reduction [%] in 518A2 cells after 24 h” value came to 1.6 ± 0.1%. The “NBT Reduction [%] in HL-60 cells after 24 h” value in the experiment on HL-60 cells [3] was found to be 4.8 ± 0.5%. For the same compound, the “Intact mitochondria [%] in 518A2 cells after 72 h” value in the experiment with 518A2 cells [4] is 84 ± 6%.

`COc1cc(-c2ncn(C)c2-c2ccc(N(C)C)cc2)cc(Cl)c1OC` [compound 5d, 1-Methyl-4-(3′-chloro-4′,5′-dimethoxyphenyl)-5-(4″-N,N-dimethylaminophenyl)-imidazole]: the “Intact mitochondria [%] in HL-60 cells after 72 h” value with HL-60 cells [1] is recorded as 61 ± 13%. The “NBT Reduction [%] in 518A2 cells after 24 h” value with 518A2 cells [2] was 2.4 ± 0.4%. Further, in the experiment on HL-60 cells [3], the “NBT Reduction [%] in HL-60 cells after 24 h” value is reported as 6.0 ± 0.9%. Further, the “Intact mitochondria [%] in 518A2 cells after 72 h” value with 518A2 cells [4] came out at 80 ± 7%.

Turning to `COc1ccc(-c2c(-c3cc(Br)c(OC)c(OC)c3)ncn2C)cc1F` [compound 6c, 1-Methyl-4-(3′-bromo-4′,5′-dimethoxyphenyl)-5-(3″-fluoro-4″-methoxyphenyl)-imidazole], in the experiment with HL-60 cells [1], the “Intact mitochondria [%] in HL-60 cells after 72 h” value was 60 ± 15%. The “NBT Reduction [%] in 518A2 cells after 24 h” value in the experiment with 518A2 cells [2] is given as 1.4 ± 0.3%. Besides, in the experiment with HL-60 cells [3], the “NBT Reduction [%] in HL-60 cells after 24 h” value is on record as 3.9 ± 0.1%. For the same compound, the “Intact mitochondria [%] in 518A2 cells after 72 h” value in the experiment with 518A2 cells [4] is 89 ± 10%.

As to `COc1cc(-c2ncn(C)c2-c2ccc(N(C)C)cc2)cc(Br)c1OC` [compound 6d, 1-Methyl-4-(3′-bromo-4′,5′-dimethoxyphenyl)-5-(4″-N,N-dimethylaminophenyl)-imidazole], the “Intact mitochondria [%] in HL-60 cells after 72 h” value in the experiment on HL-60 cells [1] is listed as 63 ± 13%. Moreover, the “NBT Reduction [%] in 518A2 cells after 24 h” value in the experiment on 518A2 cells [2] is listed as 1.6 ± 0.3%. Moreover, the “NBT Reduction [%] in HL-60 cells after 24 h” value in the experiment with HL-60 cells [3] worked out at 6.7 ± 0.8%. Further, in the experiment on 518A2 cells [4], the “Intact mitochondria [%] in 518A2 cells after 72 h” value is recorded as 82 ± 7%.
